System: ScGT1 cells
Settings: for cells remaining viable after treatment: mouse

Row | Substance | cell viability / cytotoxicity | cells remaining viable after treatment
1 | fulvic acids [FA] | remain viable | 94%
2 | humic acids [HA] | remain viable | 96%
